Laboratory results: patent US7148376B2, “Polymorphic forms of nateglinide” (Teva Pharmaceutical Industries Ltd., priority 2002, dated 2006)
Entries after “also recorded” stand apart in the source; their conditions may differ.

Experiments:
[1] = Thermal stability: polymorphic form after drying or heating (XRPD); assay type: physicochemical; details: for crystal form obtained upon drying: drying by heating under ambient or reduced pressure, generally about 40° C. to about 80° C.
Experimental: The various crystalline forms are related to each other in that drying of one form may result in a transformation to another form, namely nateglinide Forms A, B, D, E, F, G, H, I, J, K, L, M, N, Q, S, T, V, Z, α, β, δ, γ, ε, θ and Ω. The drying is carried out by heating a sample under ambient or reduced pressure. Generally, a preferred temperature is from about 40° C. to about 80° C., more preferably under reduced pressure. […] The term “stable” as used herein refers to a polymorphic change of less than about 5% by weight, more preferably less than about 2%, particularly for Form δ.
(§1) • X-Ray diffraction was performed on X-Ray powder diffractometer, Scintag®, variable goniometer, Cu-tube, solid state detector. Sample holder: A round standard aluminum sample holder with round zero background quartz plate. • The sample was put on the sample holder and immediately analyzed as is. • Scanning parameters: Range: 2–40 deg 2θ, Continuos Scan, Rate: 3 deg./min. DSC: • DSC821^e Mettler Toledo®, Sample weight: 3–5 mg, Heating rate: 10° C./min, Number of holes in the crucible: 3 TGA: • Mettler TG50®, Sample weight: 7–15 mg, Heating rate: 10° C./min FTIR: • Perkin-Elmer®, Spectrum One FTIR spectrometer, Range: 4000–400 cm−1, no. of scans: 16, resolution: 4.0 cm−1, DRIFT technique.
Sample of nateglinide form U (˜1 g) was introduced into a 6-gram vial and heated over 8.5 h in a 100° C. oil bath. The vial were extracted from the bath.
Sample of nateglinide form U (˜0.5 g) was heated to 120° C. for 1 h in an atmospheric pressure.
Sample of nateglinide form δ (˜0.5 g) was heated to 120° C. for 1 h in an atmospheric pressure.

[2] = Exposure of nateglinide Form H to solvent vapors; assay type: physicochemical; details: vapors of water and acetone, room temperature
Experimental: Some of the crystalline forms are obtained by absorption of solvent vapors. Nateglinide is contacted with vapors of a particular solvent, resulting in absorption of the solvent. Absorption of ethanol results in Form D, methanol in Form O, and DCM in Form Y. Form H was stable in the presence of vapors of water and acetone.
Nateglinide (3.50 g) was added to a polypropylene can and weighed. The can was introduced into a bigger polypropylene container containing a solvent, and stored at room temperature. The can was removed from the container and weighed (Wfinal). The can content was divided into 2 portions. One portion was dried at a temperature of 55° C. and a pressure of 20–30 mmHg to constant weight (±0.01 g).

[3] = Polymorphic stability on storage at room temperature (XRPD); assay type: physicochemical; details: storage at room temperature and pressure for about a day
Experimental: The various crystalline forms are also analyzed by Thermal Gravimetric Analysis (TGA). […] In contrast to the above listed forms, TGA profiles of forms L, P, U, α, δ and σ show no significant weight loss. These polymorphic forms of nateglinide are free of bound solvents, i.e., less than about 2% LOD. Table III lists the solvents used for the preparation for nateglinide solvated forms, as well as LOD values based on TGA analysis.
Storage at room temperature and pressure may also cause a transition of one form to another.
as §1

[4] = cited from earlier work

**Q.** For `CC(C)[C@H]1CC[C@H](C(=O)N[C@H](Cc2ccccc2)C(=O)O)CC1` [Form θ, nateglinide], which “crystal form obtained upon drying” value ([1]; listed as θ) is on record?
**A.** The value was “convert to Form B”.

**Q.** Which “thermal stability (conversion to another form upon heating)” value (“thermal stability” for short) [1] does the source give for `CC(C)[C@H]1CC[C@H](C(=O)N[C@H](Cc2ccccc2)C(=O)O)CC1` [Form L, nateglinide] here?
**A.** The value was “thermally stable”.

**Q.** For `CC(C)[C@H]1CC[C@H](C(=O)N[C@H](Cc2ccccc2)C(=O)O)CC1` [Form H, nateglinide], which “thermal stability” value [1] is on record?
**A.** Its value is “thermally stable”.

**Q.** What about the “stability in the presence of solvent vapors” value [2] of the same compound?
**A.** The value was “stable”.

**Q.** What does the source list for `CC(C)[C@H]1CC[C@H](C(=O)N[C@H](Cc2ccccc2)C(=O)O)CC1` [Form δ, nateglinide]?
**A.** thermal stability (conversion to another form upon heating) [1]: somewhat stable; crystal form after heating at 120° C. ([1]; 120° C., 1 atmosphere, 1 h, XRPD): Form B; crystal form obtained upon drying ([1]; listed as δ): convert to Form B; polymorphic form after drying in a fluidized bed drier ([1]; fluidized bed drier, 4 hours at 60° C.): delta; polymorph after drying in a stirred reactor ([1]; stirred reactor 7–10 rpm, 60 mmHg vacuum, 60° C., 6 hours): remained delta form

**Q.** For `CC(C)[C@H]1CC[C@H](C(=O)N[C@H](Cc2ccccc2)C(=O)O)CC1` [Form Q, nateglinide], which “crystal form obtained upon drying” value ([1]; listed as Q) is on record?
**A.** Its value is “convert to Form B”.

**Q.** What about the “transition of one form to another on storage” value (shortened to “transition of one form”) ([3]; listed as Q) of the same compound?
**A.** Its value is “converts to Form Y (containing chloroform)”.

**Q.** With `CC(C)[C@H]1CC[C@H](C(=O)N[C@H](Cc2ccccc2)C(=O)O)CC1` [Form A, nateglinide] as the compound, how does the “crystal form obtained upon drying” value ([1]; listed as A) read?
**A.** Its value is “convert to Form B”.

**Q.** What about the “transition of one form” value ([3]; listed as A) of the same compound?
**A.** The value was “partially converts to Form B”.

**Q.** Which “thermal stability” value [1] does the source give for `CC(C)[C@H]1CC[C@H](C(=O)N[C@H](Cc2ccccc2)C(=O)O)CC1` [Form Y, nateglinide] here?
**A.** The value was “somewhat stable”.

**Q.** With `CC(C)[C@H]1CC[C@H](C(=O)N[C@H](Cc2ccccc2)C(=O)O)CC1` [Form K, nateglinide] as the compound, how does the “crystal form obtained upon drying” value ([1]; listed as K) read?
**A.** The value was “convert to Form B”.

**Q.** With `CC(C)[C@H]1CC[C@H](C(=O)N[C@H](Cc2ccccc2)C(=O)O)CC1` [Form I, nateglinide] as the compound, how does the “transition of one form” value ([3]; listed as I) read?
**A.** Its value is “converts to Form L”.

**Q.** With `CC(C)[C@H]1CC[C@H](C(=O)N[C@H](Cc2ccccc2)C(=O)O)CC1` [Form J, nateglinide] as the compound, how does the “crystal form obtained upon drying” value ([1]; listed as J) read?
**A.** The value was “convert to Form B”.

**Q.** For `CC(C)[C@H]1CC[C@H](C(=O)N[C@H](Cc2ccccc2)C(=O)O)CC1` [Form α, nateglinide], which “thermal stability” value [1] is on record?
**A.** Its value is “somewhat stable”.

**Q.** And the “crystal form obtained upon drying” value ([1]; listed as α)?
**A.** Its value is “convert to Form B”.

**Q.** Which “thermal stability” value [1] does the source give for `CC(C)[C@H]1CC[C@H](C(=O)N[C@H](Cc2ccccc2)C(=O)O)CC1` [Form O, nateglinide] here?
**A.** The value was “somewhat stable”.

**Q.** Which “crystal form obtained upon drying” value ([1]; listed as D) does the source give for `CC(C)[C@H]1CC[C@H](C(=O)N[C@H](Cc2ccccc2)C(=O)O)CC1` [Form D, nateglinide] here?
**A.** Its value is “convert to Form B”.

**Q.** With `CC(C)[C@H]1CC[C@H](C(=O)N[C@H](Cc2ccccc2)C(=O)O)CC1` [Form U, nateglinide] as the compound, how does the “thermal stability” value [1] read?
**A.** Its value is “thermally stable”.

**Q.** And the “crystal form after heating at about 100° C.” value ([1]; 100° C. oil bath, 8.5 h, XRPD)?
**A.** Its value is “does not undergo a transition; also recorded: Form U”.

**Q.** What about the “crystal form after heating to 120° C. for 1 h” value ([1]; 120° C., 1 h, atmospheric pressure, XRPD) of the same compound?
**A.** Its value is “Form U”.

**Q.** Which “crystal form obtained upon drying” value [1] does the source give for `CC(C)[C@H]1CC[C@H](C(=O)N[C@H](Cc2ccccc2)C(=O)O)CC1` [nitromethane solvates of Form Epsilon, nateglinide] here?
**A.** The value was “Forms H or P”.

**Q.** With `CC(C)[C@H]1CC[C@H](C(=O)N[C@H](Cc2ccccc2)C(=O)O)CC1` [nateglinide, (−)-N-(trans-4-isopropylcyclohexanecarbonyl)-D-Phenylalanine] as the compound, how does the solubility in acetonitrile ([4]; acetonitrile) read?
**A.** Its solubility in acetonitrile is “sparingly soluble”.

**Q.** What about the solubility in chloroform ([4]; chloroform) of the same compound?
**A.** Its solubility in chloroform is “freely soluble”.

**Q.** And the solubility in ethanol ([4]; ethanol)?
**A.** Its solubility in ethanol is “freely soluble”.

**Q.** And the solubility in ether ([4]; ether)?
**A.** The solubility in ether was “soluble”.

**Q.** What about the solubility in methanol ([4]; methanol) of the same compound?
**A.** Its solubility in methanol is “freely soluble”.

**Q.** What about the solubility in octanol ([4]; octanol) of the same compound?
**A.** The solubility in octanol was “sparingly soluble”.

**Q.** And the solubility in water ([4]; water)?
**A.** The solubility in water was “practically insoluble”.

**Q.** For `CC(C)[C@H]1CC[C@H](C(=O)N[C@H](Cc2ccccc2)C(=O)O)CC1` [Form σ, nateglinide], which “thermal stability” value [1] is on record?
**A.** Its value is “thermally stable”.

**Q.** Which “thermal stability” value [1] does the source give for `CC(C)[C@H]1CC[C@H](C(=O)N[C@H](Cc2ccccc2)C(=O)O)CC1` [Form B, nateglinide] here?
**A.** The value was “thermally stable”.

**Q.** What does the source list for `CC(C)[C@H]1CC[C@H](C(=O)N[C@H](Cc2ccccc2)C(=O)O)CC1` [Form Ω, nateglinide]?
**A.** crystal form after drying at 50° C. in a vacuum oven overnight ([1]; 50° C., vacuum oven, overnight, XRD): mixture of Form omega and Form Z; crystal form obtained upon drying ([1]; listed as Ω): convert to Form B

**Q.** For `CC(C)[C@H]1CC[C@H](C(=O)N[C@H](Cc2ccccc2)C(=O)O)CC1` [Form C, nateglinide], which “crystal form obtained upon drying” value ([1]; listed as C) is on record?
**A.** Its value is “convert to Form B”.

**Q.** For `CC(C)[C@H]1CC[C@H](C(=O)N[C@H](Cc2ccccc2)C(=O)O)CC1` [Form β, nateglinide], which “crystal form obtained upon drying” value ([1]; listed as β) is on record?
**A.** The value was “convert to Form B”.

**Q.** For `CC(C)[C@H]1CC[C@H](C(=O)N[C@H](Cc2ccccc2)C(=O)O)CC1` [Form G, nateglinide], which “crystal form obtained upon drying” value ([1]; listed as G) is on record?
**A.** The value was “convert to Form B”.

**Q.** With `CC(C)[C@H]1CC[C@H](C(=O)N[C@H](Cc2ccccc2)C(=O)O)CC1` [Form T, nateglinide] as the compound, how does the “crystal form obtained upon drying” value ([1]; listed as T) read?
**A.** The value was “convert to Form B; also recorded: mixture of Form B and G”.

**Q.** And the “transition of one form” value ([3]; listed as T)?
**A.** Its value is “converts to Form E”.

**Q.** Which “crystal form obtained upon drying” value [1] does the source give for `CC(C)[C@H]1CC[C@H](C(=O)N[C@H](Cc2ccccc2)C(=O)O)CC1` [acetonitrile solvate of Form Epsilon, nateglinide] here?
**A.** Its value is “Form B”.

**Q.** Which “crystal form obtained upon drying” value ([1]; listed as Z) does the source give for `CC(C)[C@H]1CC[C@H](C(=O)N[C@H](Cc2ccccc2)C(=O)O)CC1` [Form Z, nateglinide] here?
**A.** Its value is “convert to Form B”.

**Q.** Which “crystal form obtained upon drying” value ([1]; listed as E) does the source give for `CC(C)[C@H]1CC[C@H](C(=O)N[C@H](Cc2ccccc2)C(=O)O)CC1` [Form E, nateglinide] here?
**A.** The value was “convert to Form B”.
